Source: ChEMBL document CHEMBL4007424, “Design and Synthesis of Enantiomerically Pure Decahydroquinoxalines as Potent and Selective κ-Opioid Receptor Agonists with Anti-Inflammatory Activity in Vivo” (J Med Chem, 2017)
pEC50, pKi: −log10 of the molar value.

How the values were obtained:
[1] = target: T1, Kappa-type opioid receptor (Homo sapiens, UniProt P41145); experiment: Agonist activity at recombinant human kappa-type opioid receptor expressed in HEK293 cells at 1 uM after 30 mins by [35S]GTPgammaS binding assay; assay type: functional, cell-based
Rattus norvegicus [2] = species: Rattus norvegicus; experiment: Displacement of [3H]-DTG from sigma 2 receptor in rat liver membranes at 1 uM after 120 mins by scintillation counting; assay type: cell membranes; conditions: Membrane
[3] = target: Sigma non-opioid intracellular receptor 1 (Cavia porcellus) (UniProt Q60492); experiment: Displacement of [3H]-(+)-pentazocine from sigma1-type […] receptor in guinea pig cortex membranes at 1 uM after 120 mins by solid scintillation counting; assay type: cell membranes
Sus scrofa = species: Sus scrofa; experiment: Displacement of [3H]-(+)-MK 801 from PCP binding site of NMDA receptor in pig brain cortex membranes at 10 uM after 120 mins by solid scintillation counting; assay type: cell membranes
[4] = target: Mu-type opioid receptor (Cavia porcellus) (UniProt P97266); experiment: Displacement of [3H]DAMGO from mu-type opioid receptor in guinea pig brain membranes at 1 uM after 120 mins by solid scintillation counting; assay type: cell membranes; conditions: Membrane
[5] = target: T1, Kappa-type opioid receptor; experiment: Agonist activity at recombinant human kappa-type opioid receptor expressed in HEK293 cells after 30 mins by [35S]GTPgammaS binding assay; assay type: functional, cell-based
[6] = target: Kappa-type opioid receptor (Cavia porcellus, UniProt P41144); experiment: Displacement of [3H]U-69,593 from kappa-type opioid receptor in guinea pig brain membranes after 120 mins by solid scintillation counting; assay type: cell membranes, Membrane
[7] = Lipophilicity, logD of the compound at pH 7.4 by LC/MS analysis; assay type: physicochemical; conditions: buffer
[8] = Displacement of [3H]DPDPE from delta-type opioid receptor in guinea pig brain membranes after 120 mins by solid scintillation counting; assay type: cell membranes, Cavia porcellus, Membrane
[9] = Plasma concentration in Wistar Han rat at 5 mg/kg, iv measured 0.25 hrs post compound administration; assay type: ADME, organism-based
[10] = Drug level in Wistar Han rat brain at 5 mg/kg, iv measured 1 hr post compound administration; assay type: ADME, organism-based; conditions: read-out: Drug uptake
Rattus norvegicus [11] = experiment: Toxicity in Wistar Han rat assessed as assessed as clinical signs changes at 5 mg/kg, iv after 1 hr; assay type: organism-based; conditions: in vivo
[12] = Plasma concentration in Wistar Han rat at 5 mg/kg, iv measured 1 hr post compound administration; assay type: ADME, organism-based
[13] = Ratio of drug level in brain to plasma in Wistar Han rat at 5 mg/kg, iv after 1 hr; assay type: ADME, organism-based; conditions: read-out: BPR
Mu-type opioid receptor = Mu-type opioid receptor (Cavia porcellus, UniProt P97266); experiment: Displacement of [3H]DAMGO from mu-type opioid receptor in guinea pig brain membranes after 120 mins by solid scintillation counting; assay type: cell membranes, Membrane
Mus musculus [14] = experiment: Antiinflammatory activity in arachidonic acid-induced ear dermatitis ICR mouse model assessed as reduction in ear swelling at 0.3 mg administered twice tropically 30 mins prior and 15 mins after arachidonic acid addition measured 60 mins post arachidonic acid challenge relative to control; assay type: functional
Mus musculus [15] = experiment: Antiinflammatory activity in arachidonic acid-induced ear dermatitis ICR mouse model assessed as reduction in ear swelling at 0.1 mg administered twice tropically 30 mins prior and 15 mins after arachidonic acid addition measured 60 mins post arachidonic acid challenge relative to control; assay type: functional
Mus musculus [16] = experiment: Antiinflammatory activity in arachidonic acid-induced ear dermatitis ICR mouse model assessed as reduction in ear swelling at 1 mg administered twice tropically 30 mins prior and 15 mins after arachidonic acid addition measured 60 mins post arachidonic acid challenge relative to control; assay type: functional
Mus musculus [17] = experiment: Antiinflammatory activity in arachidonic acid-induced ear dermatitis ICR mouse model assessed as reduction in ear swelling at 3 mg administered twice tropically 30 mins prior and 15 mins after arachidonic acid addition measured 60 mins post arachidonic acid challenge relative to control; assay type: functional

T1 sequence (P41145 whole entry): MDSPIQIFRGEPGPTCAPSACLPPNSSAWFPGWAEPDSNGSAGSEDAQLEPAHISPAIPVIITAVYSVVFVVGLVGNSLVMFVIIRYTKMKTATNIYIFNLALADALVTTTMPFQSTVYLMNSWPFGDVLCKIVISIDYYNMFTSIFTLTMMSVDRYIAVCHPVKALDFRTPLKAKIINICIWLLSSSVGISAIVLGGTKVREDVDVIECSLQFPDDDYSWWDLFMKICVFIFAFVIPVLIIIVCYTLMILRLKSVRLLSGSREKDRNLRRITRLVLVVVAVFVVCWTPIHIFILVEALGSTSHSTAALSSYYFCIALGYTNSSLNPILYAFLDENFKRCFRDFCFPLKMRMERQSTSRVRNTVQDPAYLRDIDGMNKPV
Sigma non-opioid intracellular receptor 1 (Cavia porcellus), sequence (Q60492 whole entry): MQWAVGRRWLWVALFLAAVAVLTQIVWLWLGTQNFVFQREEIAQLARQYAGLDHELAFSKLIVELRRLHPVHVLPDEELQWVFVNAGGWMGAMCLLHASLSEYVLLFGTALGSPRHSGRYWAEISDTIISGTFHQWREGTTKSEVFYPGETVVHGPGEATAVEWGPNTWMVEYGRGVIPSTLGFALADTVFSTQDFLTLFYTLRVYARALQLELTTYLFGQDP
Mu-type opioid receptor, sequence (P97266 whole entry): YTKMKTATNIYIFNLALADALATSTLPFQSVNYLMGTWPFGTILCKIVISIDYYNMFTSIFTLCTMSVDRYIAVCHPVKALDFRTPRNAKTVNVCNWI
Kappa-type opioid receptor (Cavia porcellus, UniProt P41144), sequence (P41144 whole entry): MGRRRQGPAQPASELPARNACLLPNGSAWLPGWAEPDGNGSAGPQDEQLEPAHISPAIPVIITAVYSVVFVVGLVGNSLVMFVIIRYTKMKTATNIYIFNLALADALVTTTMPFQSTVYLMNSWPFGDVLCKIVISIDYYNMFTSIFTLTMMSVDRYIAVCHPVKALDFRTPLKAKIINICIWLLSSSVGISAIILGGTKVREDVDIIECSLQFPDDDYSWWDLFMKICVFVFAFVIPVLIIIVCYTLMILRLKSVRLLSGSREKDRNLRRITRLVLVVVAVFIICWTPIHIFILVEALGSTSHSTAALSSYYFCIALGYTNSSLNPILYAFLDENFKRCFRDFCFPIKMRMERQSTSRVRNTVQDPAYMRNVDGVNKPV
Mu-type opioid receptor (Cavia porcellus), sequence (P97266 whole entry): as the sequence (P97266 whole entry) above

| SMILES | Activity [1] | inhibition (Rattus norvegicus [2]) | inhibition [3] | inhibition (Sus scrofa) | pEC50 [5] | pKi [6] | pKi [8] | concentration at 0.25 h [9] | concentration at 1 h [10] | Activity (Rattus norvegicus [11]) | concentration at 1 h [12] | Kp at 1 h [13] | further results |
| --- | --- | --- | --- | --- | --- | --- | --- | --- | --- | --- | --- | --- | --- |
| COC(=O)CN1CCN(C(=O)Cc2ccc(Cl)c(Cl)c2)[C@@H]2[C@@H](N3CCCC3)CCC[C@@H]21 | 111% | 0% | 0% | 13% |  |  |  |  |  |  |  |  |  |
| O=C(Cc1ccc(Cl)c(F)c1)N1CCN(S(=O)(=O)Cc2ccon2)[C@H]2CCC[C@H](N3CC[C@H](O)C3)[C@H]21 | 105% | 7% | 0% | 13% | 8.85 | 9.09 | 5.86 |  |  |  |  |  | inhibition [4]: 6%; logD [7]: 1.4 |
| COC(=O)N1CCN(C(=O)Cc2ccc(F)c(F)c2)[C@@H]2[C@@H](N3CC[C@H](O)C3)CCC[C@@H]21.Cl |  |  |  |  |  |  |  | 1410 ng/mL | 46.4 ng/g | Non-Toxic | 392 ng/mL | 0.12 |  |
| CS(=O)(=O)N1CCN(C(=O)Cc2ccc(Cl)c(Cl)c2)[C@@H]2[C@@H](N3CCCC3)CCC[C@@H]21 |  |  |  |  | 8.82 | 9.51 | 5.96 |  |  |  |  |  | pKi (Mu-type opioid receptor): 7.04 |
| O=C(Cc1ccc(Cl)cc1)N1CCN(S(=O)(=O)Cc2ccon2)[C@H]2CCC[C@H](N3CC[C@H](O)C3)[C@H]21 | 103% | 0% | 24% | 0% | 8.16 | 9.01 | 6.06 |  |  |  |  |  | inhibition [4]: 0% |
| COC(=O)N1CCN(C(=O)Cc2ccc(Cl)cc2)[C@@H]2[C@@H](N3CC[C@H](O)C3)CCC[C@@H]21.Cl |  |  |  |  |  |  |  | 1340 ng/mL | 70.6 ng/g | Non-Toxic | 374 ng/mL | 0.19 |  |
| COC(=O)N1CCN(C(=O)Cc2cccc(Cl)c2)[C@@H]2[C@@H](N3CC[C@H](O)C3)CCC[C@@H]21.Cl |  |  |  |  |  |  |  | 1500 ng/mL | 41.2 ng/g | Non-Toxic | 414 ng/mL | 0.1 |  |
| CS(=O)(=O)N1CCN(C(=O)Cc2ccc(F)c(Cl)c2)[C@@H]2[C@@H](N3CC[C@H](O)C3)CCC[C@@H]21.Cl |  |  |  |  |  |  |  | 1210 ng/mL | 38.7 ng/g | Non-Toxic | 356 ng/mL | 0.11 |  |
| COC(=O)N1CCN(C(=O)Cc2ccc(F)c(Cl)c2)[C@@H]2[C@@H](N3CC[C@H](O)C3)CCC[C@@H]21.Cl |  |  |  |  |  |  |  | 970 ng/mL | 44 ng/g | Non-Toxic | 465 ng/mL | 0.09 |  |
| CS(=O)(=O)N1CCN(C(=O)Cc2ccc(Cl)c(F)c2)[C@@H]2[C@@H](N3CC[C@H](O)C3)CCC[C@@H]21.Cl |  |  |  |  |  |  |  | 938 ng/mL | 37.5 ng/g | Non-Toxic | 437 ng/mL | 0.09 |  |
| CS(=O)(=O)N1CCN(C(=O)Cc2ccc(Cl)c(F)c2)[C@@H]2[C@@H](N3CC[C@H](O)C3)CCC[C@@H]21 | 105% | 0% | 12% | 16% |  |  |  |  |  |  |  |  |  |
| COC(=O)N1CCN(C(=O)Cc2ccc(Cl)cc2)[C@@H]2[C@@H](N3CC[C@H](O)C3)CCC[C@@H]21 |  |  |  |  | 7.85 | 9.19 | 6.35 |  |  |  |  |  | inhibition (INH) (Mus musculus [14]): 27%; inhibition (INH) (Mus musculus [15]): 24%; inhibition (INH) (Mus musculus [16]): 27%; inhibition (INH) (Mus musculus [17]): 62%; pKi (Mu-type opioid receptor): 6.44 |
| COC(=O)N1CCN(C(=O)Cc2ccc(C(F)(F)F)c(Cl)c2)[C@@H]2[C@@H](N3CC[C@H](O)C3)CCC[C@@H]21 |  |  |  |  | 9.52 | 9.57 | 6.40 |  |  |  |  |  | pKi (Mu-type opioid receptor): 6.21 |
| COC(=O)N1CCN(C(=O)Cc2ccc(F)c(F)c2)[C@@H]2[C@@H](N3CC[C@H](O)C3)CCC[C@@H]21 |  |  |  |  | 7.96 | 8.92 | 6.21 |  |  |  |  |  | inhibition (INH) (Mus musculus [14]): -20%; inhibition (INH) (Mus musculus [15]): 1%; logD [7]: 0.77; inhibition (INH) (Mus musculus [16]): -11%; inhibition (INH) (Mus musculus [17]): 64% |
| COC(=O)N1CCN(C(=O)Cc2ccc(Cl)c(Cl)c2)[C@@H]2[C@@H](N3CC[C@H](O)C3)CCC[C@@H]21 | 113% | 12% | 0% | 21% |  |  |  |  |  |  |  |  |  |
